# Counter-ions that a name gives are not always drawn.
# What was measured:
# TMK1 cells [1] = experiment: TMK1 cell migration in Boyden's chamber; type: cell-based; conditions: 4 hours
# Experimental: TMK1 cells, low-differentiating epithelial cells, were treated with trypsin. […] The culture medium in the lower well was then subjected to fixing and staining, and cells which had migrated therein were counted. Experiments were conducted concurrently in three chambers.
# Each value will be presented as a mean ±S.D. and with respect to each compound, numbers of cells will be presented in the order of a) control, b) each pyrimidine compound (whose concentration will be specifically indicated), c) 10 ng/ml of EGF, and d) a mixed solution of each pyrimidine compound + EGF.
# PDGF-A mRNAs [2] = experiment: Polysome distribution (translation) of PDGF-A mRNAs in rat SMCs; type: cell-based
# Experimental: SMCs were prepared following the method proposed by Ross and Klebanoff in "J. Cell. […] A rat thoracic aorta was excised. After the tunica externa was peeled off, the tunica media and the tunica intima were minced into 2-3 mm^2. The minced sections were placed standstill in a 25-cm^2 flask which contained Waymouth's MB 752/1 medium containing 10% FBS and 80 ng/ml of gentamycin (product of Schering-Plough Corp.), followed by incubation at 37° C. for 2 to 3 weeks in the presence of 5% carbon dioxide gas (primary culture). The same volume of a trypsin-EDTA solution was added to the flask. After the sections were treated at 37° C. for 5 minutes to peel off cells, the cells were diluted with 10% FBS-Waymouth's MB 752/1 medium and then subcultured (second generation). Subculture was successively conducted likewise whenever the SMC became confluent. In the following experiments, the cells from the 5th generation to the 12th generation were employed. After reach in confluence of cells, the cultured SMCs were cultured for 2 days in a serum-free medium to avoid influence of serum. The SMCs were then added with thrombin (1.0 U/ml) or serotonin (5 μM), followed by incubation at 37° C. for 6 hours under which bring about induction of PDGF-A mRNAs at the maximum. To prevent dissociation of ribosomes and mRNAs, cycloheximide (100 μg/ml) was added 5 minutes before cells were collected. […] Biol. Chem.", 267, 508 ff, 1992 with slight modifications. The cells, which had been collected by the treatment with trypsin, were washed with PBS containing cycloheximide (100 μg/ml). A cell precipitate was then added with 500 μl of a high-salt lysis buffer (20 mM Tris-HCl pH 7.5, 250 mM NaCl, 5 mM MgCl2, 0.1% Noni det P-40, 0.2% DOC) for homogenization. The homogenate was centrifuged under 12,000×g at 4° C. for 10 minutes. The resulting supernatant was added with 67 μl of a heparine mix (7.4 mg/ml heparine, 1.1M NaCl, 15 mM DTT and RNasin). 200 μl of the extract were layered on 5 ml of 0.5-1.25M linear sucrose gradient (which contained 20 mM Tris-HCl pH 7.4, 10 mM NaCl, 3 mM MgCl2), followed by centrifugation under 45,000 rpm for 90 minutes in a "Hitachi […]". While monitoring the absorbance at 260 nm, ten (10) fractions were obtained. […] Subsequent to incubation at 37° C. for 1 hour, each fraction was extracted once with 1/2 volume of phenol, twice with 1/2 volume aliquots of chloroform, and once with the equal volume of chloroform, whereby proteins were removed. The water layer was added with glycogen (20 μg/ml) as a coprecipitant and then with 0.03M of sodium acetate, and RNAs were caused to precipitate with 2 volumes of ethanol. After RNAs were incubated at 65° C. for 5 minutes in a solution containing 60% of formamide, 5.9% of formaldehyde and the equal volume of MOPS buffer (10 mM MOPS pH 7.0, 4 mM NaOAc, 0.5 mM EDTA), electrophoresis was conducted across 1.2% agarose gels containing the equal volume of MOPS buffer so that RNAs were. isolated. After the gel was washed with 20 volumes of SSC, RNAs were blotted overnight to a Gene Screen Plus membrane by the capillary method. Fixing of the RNAs was conducted by exposing them for 1 minute at a distance of 10 cm from […]. Using a "QuickHyb Hybridization Solution" (product of Strategene Ltd.), hybridization was conducted following the instruction manual attached to the solution. Results of autoradiography were quantitated with reference to the NIH Image. […]
# PDGF-A mRNAs [3] = experiment: Northern blot analysis of PDGF-A mRNA expression in cultured rat SMCs; type: cell-based; conditions: vs serum-free medium
# Experimental: SMCs were prepared following the method proposed by Ross and Klebanoff in "J. Cell. Biol.", 50, 159 ff, 1971 with partial modifications. A rat thoracic aorta was excised. After the tunica externa was peeled off, the tunica media and the tunica intima were minced into 2-3 mm^2. The minced sections were placed standstill in a 25-cm^2 flask which contained Waymouth's MB 752/1 medium containing 10% FBS and 80 ng/ml of gentamycin (product of Schering-Plough Corp.), followed by incubation at 37° C. for 2 to 3 weeks in the presence of 5% carbon dioxide gas (primary culture). The same volume of a trypsin-EDTA solution was added to the flask. After the sections were treated at 37° C. for 5 minutes to peel off cells, the cells were diluted with 10% FBS-Waymouth's MB 752/1 medium and then subcultured (second generation). Subculture was successively conducted likewise whenever the SMC became confluent. In the following experiments, the cells from the 5th generation to the 12th generation were employed.
# After reach in confluence of cells, the cultured SMCs were cultured for 2 days in a serum-free medium to avoid influence of serum. The SMCs were then added with thrombin (1.0 U/ml) or serotonin (5 μM), followed by incubation at 37° C. for 6 hours under which bring about induction of PDGF-A mRNAs at the maximum. To prevent dissociation of ribosomes and mRNAs, cycloheximide (100 μg/ml) was added 5 minutes before cells were collected.
# Preparation of a polysome fraction and extraction of RNAs were conducted following the method proposed by Kasper, et al. in "J. Biol. Chem.", 267, 508 ff, 1992 with slight modifications. The cells, which had been collected by the treatment with trypsin, were washed with PBS containing cycloheximide (100 μg/ml). A cell precipitate was then added with 500 μl of a high-salt lysis buffer (20 mM Tris-HCl pH 7.5, 250 mM NaCl, 5 mM MgCl2, 0.1% Noni det P-40, 0.2% DOC) for homogenization. The homogenate was centrifuged under 12,000×g at 4° C. for 10 minutes. The resulting supernatant was added with 67 μl of a heparine mix (7.4 mg/ml heparine, 1.1M NaCl, 15 mM DTT and RNasin). 200 μl of the extract were layered on 5 ml of 0.5-1.25M linear sucrose gradient (which contained 20 mM Tris-HCl pH 7.4, 10 mM NaCl, 3 mM MgCl2), followed by centrifugation under 45,000 rpm for 90 minutes in a "Hitachi RP55ST". While monitoring the absorbance at 260 nm, ten (10) fractions were obtained. To prepare samples for the extraction of RNAs, the fractions were individually added with SDS and proteinase K to give final concentrations of 1% and 0.2 mg/ml, respectively. Subsequent to incubation at 37° C. for 1 hour, each fraction was extracted once with 1/2 volume of phenol, twice with 1/2 volume aliquots of chloroform, and once with the equal volume of chloroform, whereby proteins were removed. The water layer was added with glycogen (20 μg/ml) as a coprecipitant and then with 0.03M of sodium acetate, and RNAs were caused to precipitate with 2 volumes of ethanol.
# After RNAs were incubated at 65° C. for 5 minutes in a solution containing 60% of formamide, 5.9% of formaldehyde and the equal volume of MOPS buffer (10 mM MOPS pH 7.0, 4 mM NaOAc, 0.5 mM EDTA), electrophoresis was conducted across 1.2% agarose gels containing the equal volume of MOPS buffer so that RNAs were. isolated. After the gel was washed with 20 volumes of SSC, RNAs were blotted overnight to a Gene Screen Plus membrane by the capillary method. Fixing of the RNAs was conducted by exposing them for 1 minute at a distance of 10 cm from a 15-W sterilamp. Using a "QuickHyb Hybridization Solution" (product of Strategene Ltd.), hybridization was conducted following the instruction manual attached to the solution. Results of autoradiography were quantitated with reference to the NIH Image. […]
# TMK1 cells [4] = experiment: Morphological change of TMK1 cells; type: cell-based; conditions: EGF alone 10 ng/ml, day 1
# [5] = test system: primary cultured gastric mucosal cells; experiment: Wound repair model with primary cultured gastric mucosal cells; type: cell-based, rabbit; conditions: for area of the wounded region (mean±S.D.): EGF alone 10 ng/ml
# Experimental: Primary cultured gastric mucosal cells were prepared by mechanically peeling and mincing the gastric mucosa of a rabbit having a body weight of 2 kg and then digesting the minced gastric mucosa with 0.07% collagenase. The primary cultured gastric mucosal cells were cultured at a cell concentration of 3.3×10^5 cells/ml in F-12 culture medium containing 10% fetal calf serum added therein. For this cultivation, a culture dish (60 mm in diameter) coated with collagen type I was used. […] Using an anti-BrdU antibody, the cells in the S phase were stained to identify proliferated cells.
# Their effects on the process of restoration were measured under the above-described parameters. […] In each of the control group and the medicament-added groups, the area of the wounded region was measured at the 0th hour, 12th hour, 24th hour, 36th hour and 48th hour. The measurement results will be given in this order.
# The control group and the groups added with the medicament at the respective concentrations were each subjected to the experiment with n=5. The results will each be presented as a (mean±S. D.) mm2. A test of significance was conducted relative to the control group. * stands for p<0.05, ** for p<0.01, *** for p<0.001. A further test of significance was conducted relative to a group added with 10 ng/ml of EGF. + stands for p<0.05, and ++ for <0.01.
molecule,measurement,setting,value
"CCC1CCN(c2ncc3c(n2)N(C)C(=O)C3)CC1 [2-(4-ethylpiperidino)-7-methyl-6-oxo-5,6-dihydro(7H)pyrro[2,3-d]pyrimidinemaleate]","numbers of cells counted (migrated), mean ±S.D.",TMK1 cells [1]; compound 0.1 mM + EGF 10 ng/ml,144±3.1
same,"numbers of cells counted (migrated), mean ±S.D.","TMK1 cells [1]; compound alone, 0.1 mM",28.6±18.4
thrombin,"translation state of 1.7 kb, 2.3 kb and 2.9 kb PDGF-A mRNAs",PDGF-A mRNAs [2]; thrombin alone,both those in a translated form and those in the non-translated form
same,expression amount of 1.7 kb PDGF-A mRNAs compared with control,PDGF-A mRNAs [3]; sole addition of thrombin (1.0 U/ml),1.5 times
CN1C(=O)Cc2cnc(N3CCCCC3)nc21,"numbers of cells counted (migrated), mean ±S.D.",TMK1 cells [1]; compound 0.1 mM + EGF 10 ng/ml,20.9±3.9
same,"numbers of cells counted (migrated), mean ±S.D.","TMK1 cells [1]; compound alone, 0.1 mM",2.9±1.0
"NCCc1c[nH]c2ccc(O)cc12 [serotonin, reference compound]",translation state of the three kinds of PDGF-A mRNAs,PDGF-A mRNAs [2]; serotonin alone,all in translated forms
same,fold induction at 5 µM,"PDGF-A mRNAs [3]; Rattus norvegicus, 6 h, sole addition of serotonin (5 μM), read-out: expression amount of 1.7 kb PDGF-A mRNAs compared with control",1.7
"CN1C(=O)C(C)(C)c2cnc(N3CCCCC3)nc21 [2-piperidino-5,5,7-trimethyl-6-oxo-5,6-dihydro(7H)pyrro[3,4-d]pyrimidine maleate]","numbers of cells counted (migrated), mean ±S.D.",TMK1 cells [1]; compound 0.1 mM + EGF 10 ng/ml,147.2±13.2
same,"numbers of cells counted (migrated), mean ±S.D.","TMK1 cells [1]; compound alone, 0.1 mM",33±12.6
EGF: epidermal growth factor,morphological changes,TMK1 cells [4],"significant morphological changes were observed as early as day 1, presenting scattering"
same,area of the wounded region (mean±S.D.),[5]; 0th hour,2.06±0.06 mm2
same,area of the wounded region (mean±S.D.),[5]; 12th hour,0.91±0.03 mm2
same,area of the wounded region (mean±S.D.),[5]; 24th hour,0.46±0.15 mm2
same,area of the wounded region (mean±S.D.),[5]; 36th hour,0.08±0.04 mm2
same,area of the wounded region (mean±S.D.),[5]; 48th hour,0 mm2
same,"effect on migration, proliferation and restoration of the cells",[5]; EGF alone 1-10 ng/ml,promoted migration and proliferation of the cells in a concentration-dependent manner and accelerated the speed of restoration

# — US5976523A, “Method for healing compromised tissues using pyrimidine derivatives” (Mitsui Pharmaceuticals, Inc., priority 1995, dated 1999)
